Test results taken from ChEMBL document CHEMBL2331194, “Ligerin, an antiproliferative chlorinated sesquiterpenoid from a marine-derived Penicillium strain” (J Nat Prod, 2013).

How the values were obtained:
[1] = Antiproliferative activity against rat OSRGA cells assessed as inhibition of cell viability after 72 hrs by XTT assay; type: functional, cell-based
[2] = Antiproliferative activity against mouse POS1 cells assessed as inhibition of cell viability after 72 hrs by XTT assay; type: functional, cell-based; conditions: POS1, 72 h
[3] = Antiproliferative activity against mouse L929 cells assessed as inhibition of cell viability at 60 to 2400 nM after 72 hrs by XTT assay; type: cell-based; set-up: dose or concentration left out as unconfirmed
[4] = Antiproliferative activity against rat AT6-1 cells assessed as inhibition of cell viability at 60 to 2400 nM after 72 hrs by XTT assay; type: functional
[5] = Antiproliferative activity against rat OSRGA cells assessed as inhibition of cell viability at 60 to 2400 nM after 72 hrs by XTT assay; type: functional
L929 = experiment: cells; conditions: Mus musculus, L929, 72 h
Description: Antiproliferative activity against mouse L929 cells assessed as inhibition of cell viability after 72 hrs by XTT assay

cells = conditions: Rattus norvegicus, 72 h
Description: Antiproliferative activity against rat AT6-1 cells assessed as inhibition of cell viability after 72 hrs by XTT assay

KB = experiment: cells; conditions: Homo sapiens, 72 h
Description: Antiproliferative activity against human KB cells assessed as inhibition of cell viability after 72 hrs by MTT assay

| Structure (SMILES) | IC50 [1] [nM] | IC50 [2] [nM] | inhibition at 72 h [3] [%] | inhibition (INH) [4] [%] | inhibition (INH) [5] [%] | IC50 (L929) [nM] | IC50 (cells) [nM] | IC50 (KB) [nM] |
| --- | --- | --- | --- | --- | --- | --- | --- | --- |
| COc1cccc2c1C(=O)c1c(O)c3c(c(O)c1C2=O)C[C@@](O)(C(=O)CO)C[C@@H]3O[C@H]1C[C@H](N)[C@H](O)[C@H](C)O1 [DOXORUBICIN] | 93 | 43 |  |  |  |  |  |  |
| CO[C@@H]1[C@H](OC(=O)CCC(=O)O)CC[C@](O)(CCl)[C@H]1[C@@]1(C)O[C@@H]1CC=C(C)C [LIGERIN] | > 2400 | 117 | 35 | 20 | 22 | > 2400 | > 2400 | > 478000 |
| C=C(C)C1(O)OC(=O)C=C1OC (centres undefined) [PENICILLIC ACID] |  | 7800 |  |  |  | 12900 | 29400 | > 100000 |
